From patent US5318858A, “Antacid composition” (priority 1992, dated 1994)
Read-outs that look alike come from different tables or passages of the source. Values belong to the molecule of their own block, whether it stands above or below them.

What was measured:
[1] = Acid neutralizing capacity (ANC) test and contribution of each active ingredient (21 C.F.R. 331); format: physicochemical
Experimental: Acid Neutralizing Capacity
Reagent standardization: as disclosed above.
Temperature: as disclosed above.
pH meter: as disclosed above.
Test suspension: the composition of Ex 1 was well-mixed and exactly 16.0 g (one unit dose) were transferred into a 250 ml glass beaker; sufficient water was added to obtain a total volume of about 70 ml; the resulting suspension was then mixed by means of a magnetic stirrer at 300±30 rpm for one minute. […]
Calculation of the mEq value: the number of mEq of acid neutralized by the test suspension was calculated as follows: […]
an accurately measured volume of an aluminum phosphate suspension containing exactly 9.904 g of aluminum phosphate gel, corresponding to the amount present in a one unit dose (16 g) of the antacid composition of Ex 1, were placed into a 250 ml glass beaker; distilled water was added up to a volume of 70 ml and the resulting suspension was mixed by means of a magnetic stirrer at 300±30 rpm for one minute; […]
Calculation: the percent contribution of each active ingredient in the total antacid composition of Ex 1 was calculated as follows: [formula]

[2] = Labelling of aluminum phosphate gel-containing antacid material with nuclide materials; format: physicochemical
Description: After testing several nuclide materials having suitable gamma energies in the range of from 60 to 500 keV, such as ^99m technetium-containing materials (^99m Tc-sulfur colloids, ^99m Tc-albumin microspheres, ^99m Tc-dimercaptosuccinic acid complexes, ^99m Tc-polyphosphates, -pyrophosphates and -diphosphonates), it appeared that ^99m Tc-hydroxymethylene diphosphonate (^99m Tc-HMDP) is the most suitable radiopharmaceutical material for labelling aluminum phosphate gel-containing antacid material.

[3] = oral, cited from earlier work
[4] = 21 C.F.R. 331; cited from earlier work

- contribution of active ingredient to ANC ([1]; amount present in one unit dose of Ex 1): 4.88 mEq
- percent contribution of active ingredient to total ANC ([1]; relative to total antacid composition of Ex 1): 40%
Molecule: [O]=[Mg] [MgO, magnesium oxide]

- labelling efficiency [2]: high labelling efficiency
- adsorption onto the wall of the reaction vessels or tubes ([2]; mainly glass): substantially non-adsorbed
Molecule: ^99m Tc-hydroxymethylene diphosphonate [^99m Tc-HMDP]

Molecule: sucralfate
- Al-adhesiveness duration ([3]; no ulceration): 3 to 4 h
- Al-adhesiveness duration ([3]; ulcerated sites of the gastric mucous membrane): about 24 h
- antacid properties [4]: devoid of any antacid properties
